These are literature values, as cited in patent US10653634B1, “Polymeric nanoparticulate formulation to enhance the oral bioavailability of dapoxetine” (King Abdulaziz University, priority 2019, dated 2020).

Values after ≈ are worked out from the molar mass of the structure shown.

The term pKa denotes the pH at which an ionisable group is half protonated. Broadly, the aqueous solubility is how much of the substance goes into solution per volume.

Assay in series [1]: not given
This is another data set of the same source.

With `CN(C)[C@@H](CCOc1cccc2ccccc12)c1ccccc1` [DPX, (1S)—N,N-dimethyl-3-naphthalen-1-yloxy-1-phenylpropan-1-amine], the pKa is 8.6. In addition, under “protonated DPX”, the aqueous solubility is reported as 68 mg/mL (≈ 223 mM). In series [1], the “bioavailability after oral administration (mean)” value was 42%, the “bioavailability after oral administration (variability)” value is recorded as 15-76% and the “time to peak plasma concentration after oral administration” value is 60 to 80 min.
